The text below walks through data of patent publication US20210395239A1 (Hoffmann-La Roche Inc., priority 2018, published 2021).

This experiment addresses T1, hTLR9 (Homo sapiens, UniProt Q9NR96).
T1 sequence (Q9NR96 26-1032): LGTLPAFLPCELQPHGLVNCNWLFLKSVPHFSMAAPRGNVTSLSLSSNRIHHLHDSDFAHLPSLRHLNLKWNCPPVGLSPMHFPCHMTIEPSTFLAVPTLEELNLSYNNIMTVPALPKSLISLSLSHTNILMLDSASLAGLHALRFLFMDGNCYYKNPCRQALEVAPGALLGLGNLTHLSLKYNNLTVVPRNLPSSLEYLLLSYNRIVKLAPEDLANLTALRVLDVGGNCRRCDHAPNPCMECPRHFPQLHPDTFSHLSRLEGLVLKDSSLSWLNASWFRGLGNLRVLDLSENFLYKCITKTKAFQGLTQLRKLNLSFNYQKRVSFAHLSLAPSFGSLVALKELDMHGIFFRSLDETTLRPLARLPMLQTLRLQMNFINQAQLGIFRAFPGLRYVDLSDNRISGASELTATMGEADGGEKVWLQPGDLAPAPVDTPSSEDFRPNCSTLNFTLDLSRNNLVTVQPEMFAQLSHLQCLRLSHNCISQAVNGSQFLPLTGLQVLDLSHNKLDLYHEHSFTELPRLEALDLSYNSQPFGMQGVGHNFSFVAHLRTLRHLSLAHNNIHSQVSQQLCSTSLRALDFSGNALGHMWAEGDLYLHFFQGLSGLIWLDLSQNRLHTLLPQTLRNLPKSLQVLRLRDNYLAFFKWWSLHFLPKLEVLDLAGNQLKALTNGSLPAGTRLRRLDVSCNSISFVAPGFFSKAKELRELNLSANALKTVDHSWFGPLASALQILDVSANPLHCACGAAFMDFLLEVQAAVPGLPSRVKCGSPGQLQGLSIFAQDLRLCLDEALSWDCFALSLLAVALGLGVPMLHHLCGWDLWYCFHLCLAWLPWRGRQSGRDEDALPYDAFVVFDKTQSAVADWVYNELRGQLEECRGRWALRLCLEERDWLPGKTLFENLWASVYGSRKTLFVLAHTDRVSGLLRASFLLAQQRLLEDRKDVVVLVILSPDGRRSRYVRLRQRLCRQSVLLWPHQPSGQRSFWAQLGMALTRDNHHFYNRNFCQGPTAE
In words: HEK293-Blue-hTLR-9 cells assay (SEAP reporter, ODN2006 stimulation). The format is cell-based. More on the design: host or cells: HEK293 (HEK-Blue hTLR9). The note with it: HEK293-Blue-hTLR9 cells, ODN2006, 20 hrs; read-out: HEK/hTLR9 IC50. Put shortly: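 Antagonism read as lowered SEAP reporter absorbance (620–655 nm, QUANTI-Blue, 2 h, 37 °C) in supernatants. Before that, ODN2006-stimulated HEK293-Blue cells stably expressing human TLR9 were exposed to compound dilutions at 1% final DMSO for 20 h at 37 °C.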
Consider `CO[C@H]1CN(c2nc(C)cc(N3CCN(C[C@H]4CN(c5ccc(C#N)c6nccnc56)C[C@@H](C)O4)CC3)n2)C[C@@H]1N` [Example 106, 8-[(2S,6R)-2-[[4-[2-[(3S,4S)-3-amino-4-methoxy-pyrrolidin-1-yl]-6-methyl-pyrimidin-4-yl]piperazin-1-yl]methyl]-6-methyl-morpholin-4-yl]quinoxaline-5-carbonitrile], for which the IC50 turned out to be 46 nM.
As for `C[C@@H]1CN(c2ccc(C#N)c3ncccc23)C[C@H](CN2CCN(c3ccnc(N4C[C@@H](N)[C@@H](F)C4)n3)CC2)O1` [Example 101, 5-[(2S,6R)-2-[[4-[2-[(3R,4S)-3-amino-4-fluoro-pyrrolidin-1-yl]pyrimidin-4-yl]piperazin-1-yl]methyl]-6-methyl-morpholin-4-yl]quinoline-8-carbonitrile], the figure is 31 nM; as for `Cc1ccc(N2C[C@H](CN3CCN(c4ccnc(N5CCN[C@@H](C)C5)n4)CC3)O[C@H](C)C2)c2nccnc12` [Example 127, (2R,6S)-2-methyl-6-[[4-[2-[(3S)-3-methylpiperazin-1-yl]pyrimidin-4-yl]piperazin-1-yl]methyl]-4-(8-methylquinoxalin-5-yl)morpholine], 149 nM.
The figure for `C[C@@H]1CN(c2ccc(C#N)c3nccnc23)C[C@H](CN2CCN(c3ccnc(N4C[C@@H](N)[C@@H](F)C4)n3)CC2)O1` [Example 108, 8-[(2S,6R)-2-[[4-[2-[(3R,4S)-3-amino-4-fluoro-pyrrolidin-1-yl]pyrimidin-4-yl]piperazin-1-yl]methyl]-6-methyl-morpholin-4-yl]quinoxaline-5-carbonitrile] is 68 nM; for `Cc1ccc(N2C[C@H](CN3CCN(c4ccnc(N5C[C@H]6NCCO[C@@H]6C5)n4)CC3)O[C@H](C)C2)c2nccnc12` [Example 129, (4aR,7aR)-6-[4-[4-[[(2S,6R)-6-methyl-4-(8-methylquinoxalin-5-yl)morpholin-2-yl]methyl]piperazin-1-yl]pyrimidin-2-yl]-3,4,4a,5,7,7a-hexahydro-2H-pyrrolo[3,4-b][1,4]oxazine] it is 171 nM.
Consider `[2H]c1ccc2c(N3C[C@H](CN4CCN(c5ccc(N6CC(C)(N)C6)nc5)CC4)O[C@H](C)C3)ccc(C#N)c2n1` [Example 132, 5-[(2S,6R)-2-[[4-[6-(3-amino-3-methyl-azetidin-1-yl)-3-pyridyl]piperazin-1-yl]methyl]-6-methyl-morpholin-4-yl]-2-deuterio-quinoline-8-carbonitrile], for which the IC50 was 140 nM.
As for `C[C@@H]1CN(c2ccc(C#N)n3ncc(F)c23)C[C@H](CN2CCN(c3ccc(N4CC(C)(N)C4)nc3)CC2)O1` [Example 154, 4-[(2S,6R)-2-[[4-[6-(3-amino-3-methyl-azetidin-1-yl)-3-pyridyl]piperazin-1-yl]methyl]-6-methyl-morpholin-4-yl]-3-fluoro-pyrazolo[1,5-a]pyridine-7-carbonitrile], the IC50 was 112 nM.
The figure for `C[C@@H]1CN(c2ccc(C#N)c3nccnc23)C[C@H](CN2CCN(c3nccc(N4C[C@@H](N)[C@H](F)C4)n3)CC2)O1` [Example 119, 8-[(2S,6R)-2-[[4-[4-[(3R,4R)-3-amino-4-fluoro-pyrrolidin-1-yl]pyrimidin-2-yl]piperazin-1-yl]methyl]-6-methyl-morpholin-4-yl]quinoxaline-5-carbonitrile] is 94 nM; for `[2H]c1ccc2c(N3C[C@H](CN4CCN(c5ncc(N6C[C@@H](N)[C@H](OC)C6)cc5C)CC4)O[C@H](C)C3)ccc(C#N)c2n1` [Example 142, 5-[(2S,6R)-2-[[4-[5-[(3R,4R)-3-amino-4-methoxy-pyrrolidin-1-yl]-3-methyl-2-pyridyl]piperazin-1-yl]methyl]-6-methyl-morpholin-4-yl]-2-deuterio-quinoline-8-carbonitrile] it is 64 nM; for `[2H]c1ccc2c(N3C[C@H](CN4CCN(c5nc(OC)cc(N6CC(C)(N)C6)n5)CC4)O[C@H](C)C3)ccc(C#N)c2n1` [Example 131, 5-[(2S,6R)-2-[[4-[4-(3-amino-3-methyl-azetidin-1-yl)-6-methoxy-pyrimidin-2-yl]piperazin-1-yl]methyl]-6-methyl-morpholin-4-yl]-2-deuterio-quinoline-8-carbonitrile] it is 113 nM.
As for `C[C@@H]1CN(c2ccc(C#N)c3nccnc23)C[C@H](CN2CCN(c3nccc(N4CC(N)C4)n3)CC2)O1` [Example 118, 8-[(2S,6R)-2-[[4-[4-(3-aminoazetidin-1-yl)pyrimidin-2-yl]piperazin-1-yl]methyl]-6-methyl-morpholin-4-yl]quinoxaline-5-carbonitrile], the figure is 51 nM; as for `C[C@@H]1CN(c2ccc(C#N)c3ncccc23)C[C@H](CN2CCN(c3ccnc(N4C[C@H]5NCCO[C@@H]5C4)n3)CC2)O1` [Example 103, 5-[(2S,6R)-2-[[4-[2-[(4aR,7aR)-3,4,4a,5,7,7a-hexahydro-2H-pyrrolo[3,4-b][1,4]oxazin-6-yl]pyrimidin-4-yl]piperazin-1-yl]methyl]-6-methyl-morpholin-4-yl]quinoline-8-carbonitrile], 100 nM; as for `[2H]c1ccc2c(N3C[C@H](CN4CCN(c5ccc(N6CC(C)(N)C6)c(C)n5)CC4)O[C@H](C)C3)ccc(C#N)c2n1` [Example 147, 5-[(2S,6R)-2-[[4-[5-(3-amino-3-methyl-azetidin-1-yl)-6-methyl-2-pyridyl]piperazin-1-yl]methyl]-6-methyl-morpholin-4-yl]-2-deuterio-quinoline-8-carbonitrile], 181 nM.
In the case of `C[C@@H]1CN(c2ccc(C#N)c3ncccc23)C[C@H](CN2CCC(c3cccc(N4CCNCC4)c3)C2)O1` (stereo partly drawn) [Example 1, 5-[(2R,6S)-2-methyl-6-[[3-(3-piperazin-1-ylphenyl)pyrrolidin-1-yl]methyl]morpholin-4-yl]quinoline-8-carbonitrile], the IC50 came to 136 nM.
`C[C@@H]1CN(c2ccc(C#N)c3nccnc23)C[C@H](CN2CCN(c3ccnc(N4C[C@H](N)[C@@H](F)C4)n3)CC2)O1` [Example 107, 8-[(2S,6R)-2-[[4-[2-[(3S,4S)-3-amino-4-fluoro-pyrrolidin-1-yl]pyrimidin-4-yl]piperazin-1-yl]methyl]-6-methyl-morpholin-4-yl]quinoxaline-5-carbonitrile]: the IC50 is 80 nM.
As for `COC1CN(c2nccc(N3CCN(C[C@H]4CN(c5ccc(C#N)c6ncccc56)C[C@@H](C)O4)CC3)n2)CC1N` (stereo in doubt) [Example 93, 5-[(2S,6R)-2-[[4-[2-[(3R,4S)-3-amino-4-methoxy-pyrrolidin-1-yl]pyrimidin-4-yl]piperazin-1-yl]methyl]-6-methyl-morpholin-4-yl]quinoline-8-carbonitrile], the figure is 31 nM.
The figure for `Cc1ccc(N2C[C@H](CN3CCN(c4ccnc(N5CC6(CNCCO6)C5)n4)CC3)O[C@H](C)C2)c2nccnc12` [Example 126, 2-[4-[4-[[(2S,6R)-6-methyl-4-(8-methylquinoxalin-5-yl)morpholin-2-yl]methyl]piperazin-1-yl]pyrimidin-2-yl]-5-oxa-2,8-diazaspiro[3.5]nonane] is 146 nM.
